These results are taken from PubChem BioAssay AID493251 (Sanford-Burnham Center for Chemical Genomics, 2011).

This test deals with HEK293T NF-kB-Luc cytotoxicity, resazurin fluorescence, 14 h. The test can be described thus: cytotoxicity in HEK293T NF-kB-Luc cells, SAR follow-up, cytotoxicity control for NF-kB activator project, cell-based, resazurin fluorescence (AID 493251). A general note: Resazurin is reduced to fluorescent resorufin, in cell work by metabolically active cells.

Several values for one entry are separate records, joined by “and”; a condition that tells them apart may be missing. Identical values can stand only once.

Consider `CCCC(=O)NC(c1ccc(OC)cc1)c1ccc2cccnc2c1O` (stereo unspecified), for which the half-inhibitory concentration (IC50) is 15.8 µM and > 33.2 µM (inactive).

For orientation: IC50 means the midpoint of a concentration-inhibition curve.
